Assay results reported in PMC11864945 (Frontiers in Pharmacology, 2025).
Where two headings read alike, the source gives them in different places.

Assays:
in vivo = settings: beagle, dog, po; for AUC(0-t): AUC0–30; for AUC(0-inf): AUC0–inf; for k el: Kel (elimination rate constant); for half-life: t1/2 (elimination half–life)
[1] = beagle, dog, in vivo; for AUC0–30 / AUC0–inf / Cmax / Kel (elimination rate constant) / Tmax / t1/2 (elimination half–life): po
[2] = Stability of the analytes in beagle dog plasma (bench top, refrigerator, freeze–thaw, autosampler, short and long term storage); assay type: physicochemical; settings: for Mean stability sample ±SD: n = 5
[3] = 20 healthy beagle dogs, identical dose strength, ref Klausz et al., 2015, cited from earlier work
[4] = stock solution in DMF, −20°C
[5] = Bioequivalence / pharmacokinetic study of compound febantel tablets after single oral dose, plasma levels by UPLC–MS/MS; settings: beagle, dog, 38 beagle dogs, fasting, mean ± SD; for AUC(0-inf): AUC0–inf; for k el: Kel (elimination rate constant); for half-life: t1/2 (elimination half–life)
[6] = autosampler, 6°C, 55 h, processed plasma samples, HQC
[7] = autosampler, 6°C, 55 h, processed plasma samples, LQC
[8] = bench top, room temperature, 8 h, dog plasma, HQC (added 180 ng/mL PYR/OXF, 675 PRA, 90 FBT, 450 FEN)
[9] = bench top, room temperature, 8 h, dog plasma, HQC, % of nominal concentration
[10] = bench top, room temperature, 8 h, dog plasma, LQC (added 12 ng/mL PYR/OXF, 45 PRA, 6 FBT, 30 FEN)
[11] = bench top, room temperature, 8 h, dog plasma, LQC, % of nominal concentration
[12] = freeze–thaw after 3rd cycle at −80°C, dog plasma, HQC
[13] = freeze–thaw after 3rd cycle at −80°C, dog plasma, LQC
[14] = long term, −80°C, 120 days, dog plasma, HQC
[15] = long term, −80°C, 120 days, dog plasma, LQC
[16] = refrigerator, 4°C, 30 h, dog plasma, HQC
[17] = refrigerator, 4°C, 30 h, dog plasma, LQC
[18] = short term, −20°C, 48 h, dog plasma, HQC
[19] = short term, −20°C, 48 h, dog plasma, LQC
[20] = reference product (R), single oral tablet
[21] = test product (T), single oral tablet

Mean stability sample ±SD [2, 6] | Accuracy [2, 7] | Mean stability sample ±SD [2, 7] | Mean stability sample ±SD [2, 8] | Accuracy [2, 9] | Mean stability sample ±SD [2, 10] | Accuracy [2, 11] | Accuracy [2, 12] | Mean stability sample ±SD [2, 12] | Accuracy [2, 13] | Mean stability sample ±SD [2, 13] | Accuracy [2, 14] | Mean stability sample ±SD [2, 14] | Accuracy [2, 15] | Mean stability sample ±SD [2, 15] | Accuracy [2, 16] | Mean stability sample ±SD [2, 16] | Accuracy [2, 17] | Mean stability sample ±SD [2, 17] | Accuracy [2, 18] | Compound | further results
194.53 ± 3.27 ng/mL | 107.25% | 12.87 ± 0.28 ng/mL | 163.22 ± 1.45 ng/mL | 90.68% | 11.30 ± 0.66 ng/mL | 94.15% | 94.84% | 170.71 ± 4.98 ng/mL | 92.15% | 11.06 ± 0.55 ng/mL | 97.25% | 175.05 ± 5.76 ng/mL | 88.57% | 10.63 ± 0.11 ng/mL | 97.21% | 174.99 ± 6.96 ng/mL | 97.18% | 11.66 ± 0.93 ng/mL | 107.76% | CN1CCCN=C1/C=C/c1cccs1 [Pyrantel, pyrantel] | AUC(0-t) (in vivo): 423 ± 140 ng·h/mL; AUC(0-inf) (in vivo): 489 ± 186 ng·h/mL; k el (in vivo): 5.28e-05 s⁻¹; Tmax (in vivo): 3.08 ± 0.98 h; half-life (in vivo): 4.27 ± 2.03 h; Cmax ([3]; reference products): 81.1 ng/mL; Cmax ([3]; test products): 78.5 ng/mL; GMR (Test/Reference) of AUC0–30 [1]: 110.18%; GMR (Test/Reference) of AUC0–inf [1]: 111.84%; GMR (Test/Reference) of Cmax [1]: 112.68%; AUC0–30 [1]: 378.04 ± 102.58 ng·h/mL; AUC0–inf [1]: 429.16 ± 117.30 ng·h/mL; Cmax [1]: 69.17 ± 21.12 ng/mL; Kel (elimination rate constant) [1]: 0.20 ± 0.08 h⁻¹; Tmax [1]: 2.87 ± 1.06 h; t1/2 (elimination half–life) [1]: 4.87 ± 4.38 h; Accuracy [2, 6]: 108.07%; Mean stability sample ±SD [2, 18]: 193.96 ± 8.82 ng/mL; Accuracy [2, 19]: 100.41%; Mean stability sample ±SD [2, 19]: 12.05 ± 0.92 ng/mL
729.27 ± 27.29 ng/mL | 103.68% | 46.65 ± 1.23 ng/mL | 645.65 ± 11.69 ng/mL | 95.65% | 44.28 ± 0.95 ng/mL | 98.41% | 99.19% | 669.52 ± 14.97 ng/mL | 98.12% | 44.15 ± 2.42 ng/mL | 91.14% | 615.17 ± 19.69 ng/mL | 94.44% | 42.50 ± 4.13 ng/mL | 96.95% | 654.44 ± 29.69 ng/mL | 98.16% | 44.17 ± 3.20 ng/mL | 108.18% | O=C(C1CCCCC1)N1CC(=O)N2CCc3ccccc3C2C1 (centres unmarked) [Praziquantel, praziquantel] | AUC(0-t) (in vivo): 3320 ng·h/mL; AUC(0-inf) (in vivo): 3370 ng·h/mL; k el (in vivo): 0.000122 s⁻¹; Tmax (in vivo): 1.45 ± 1.05 h; half-life (in vivo): 1.66 ± 0.41 h; GMR (Test/Reference) of AUC0–30 [1]: 101.83%; GMR (Test/Reference) of AUC0–inf [1]: 101.79%; GMR (Test/Reference) of Cmax [1]: 97.63%; AUC0–30 [1]: 3,267.67 ± 1827.15 h. ng/mL; AUC0–inf [1]: 3,317.89 ± 1838.60 h ng/mL; Cmax [1]: 957.04 ± 537.42 ng/mL; Kel (elimination rate constant) [1]: 0.45 ± 0.12 h⁻¹; Tmax [1]: 1.48 ± 0.67 h; t1/2 (elimination half–life) [1]: 1.65 ± 0.46 h; Accuracy [2, 6]: 108.04%; Mean stability sample ±SD [2, 18]: 730.20 ± 19.11 ng/mL; Accuracy [2, 19]: 100.34%; Mean stability sample ±SD [2, 19]: 45.15 ± 3.68 ng/mL
– | – | – | – | – | – | – | – | – | – | – | – | – | – | – | – | – | – | – | – | [2H]C([2H])([2H])OC(=O)Nc1nc2ccc(Sc3ccccc3)cc2[nH]1 [IS, Fenbendazole–D3] | Long–term stability of stock solution (time remained stable) [4]: 104 days
192.72 ± 8.41 ng/mL | 106.85% | 12.82 ± 0.85 ng/mL | 162.16 ± 2.99 ng/mL | 90.09% | 12.08 ± 1.02 ng/mL | 100.65% | 97.23% | 175.01 ± 5.08 ng/mL | 100.97% | 12.12 ± 0.84 ng/mL | 97.64% | 175.76 ± 5.23 ng/mL | 93.96% | 11.28 ± 0.62 ng/mL | 96.84% | 174.31 ± 5.37 ng/mL | 95.50% | 11.46 ± 0.74 ng/mL | 105.41% | COC(=O)Nc1nc2ccc([S+]([O-])c3ccccc3)cc2[nH]1 (centres unmarked) [Qxfendazole, oxfendazole] | AUC(0-t) ([5]; AUC0–30, reference product (R), single oral tablet): 2100 ng·h/mL; AUC(0-t) ([5]; AUC0–30, test product (T), single oral tablet): 1790 ng·h/mL; AUC(0-inf) [5, 20]: 2550 ng·h/mL; AUC(0-inf) [5, 21]: 1910 ng·h/mL; Cmax ([5]; reference product (R, Drontal Plus), single oral tablet): 224 ± 112 ng/mL; Cmax ([5]; test product (T), single oral tablet (150 mg FBT, 144 mg pyrantel pamoate, 50 mg PRA)): 184 ± 95.7 ng/mL; k el [5, 20]: 6.11e-05 s⁻¹; k el [5, 21]: 6.67e-05 s⁻¹; Tmax [5, 20]: 6.97 ± 3.47 h; Tmax [5, 21]: 7.08 ± 2.65 h; half-life [5, 20]: 4.17 ± 2.45 h; half-life [5, 21]: 3.83 ± 3.03 h; Accuracy [2, 6]: 107.07%; Mean stability sample ±SD [2, 18]: 189.73 ± 8.17 ng/mL; Accuracy [2, 19]: 98.29%; Mean stability sample ±SD [2, 19]: 11.80 ± 0.79 ng/mL

Compound | Mean stability sample ±SD [2, 6] | Accuracy [2, 7] | Mean stability sample ±SD [2, 7] | Mean stability sample ±SD [2, 8] | Accuracy [2, 9] | Mean stability sample ±SD [2, 10] | Accuracy [2, 11] | Accuracy [2, 12] | Mean stability sample ±SD [2, 12] | Accuracy [2, 13] | Mean stability sample ±SD [2, 13] | Accuracy [2, 14] | Mean stability sample ±SD [2, 14] | Accuracy [2, 15] | Mean stability sample ±SD [2, 15] | Accuracy [2, 16] | Mean stability sample ±SD [2, 16] | Accuracy [2, 17] | Mean stability sample ±SD [2, 17] | Accuracy [2, 18] | further results
COC(=O)Nc1nc2ccc(Sc3ccccc3)cc2[nH]1 [Fenbendazole, fenbendazole] | 457.91 ± 24.20 ng/mL | 100.87% | 30.26 ± 0.97 ng/mL | 412.09 ± 6.95 ng/mL | 91.58% | 28.75 ± 0.77 ng/mL | 95.83% | 99.49% | 447.72 ± 13.36 ng/mL | 98.82% | 29.65 ± 1.05 ng/mL | 101.31% | 455.87 ± 11.17 ng/mL | 102.31% | 30.69 ± 0.89 ng/mL | 97.40% | 438.32 ± 14.73 ng/mL | 97.04% | 29.11 ± 1.92 ng/mL | 104.58% | AUC(0-t) (in vivo): 1440 ng·h/mL; AUC(0-inf) (in vivo): 1680 ng·h/mL; k el (in vivo): 4.44e-05 s⁻¹; Tmax (in vivo): 5 ± 3.56 h; half-life (in vivo): 6.96 ± 8.33 h; AUC0–30 [1]: 1,689.33 ± 881.68 h. ng/mL; AUC0–inf [1]: 1,893.90 ± 934.66 h ng/mL; Cmax [1]: 212.35 ± 104.41 ng/mL; Kel (elimination rate constant) [1]: 0.15 ± 0.07 h⁻¹; Tmax [1]: 5.20 ± 3.10 h; t1/2 (elimination half–life) [1]: 5.76 ± 3.70 h; Mean stability sample ±SD [2, 18]: 470.60 ± 13.89 ng/mL; Accuracy [2, 19]: 103.13%; Mean stability sample ±SD [2, 19]: 30.94 ± 2.18 ng/mL
